In patent publication US20230027026A1, “FUSED PYRIMIDINE COMPOUNDS, COMPOSITIONS AND MEDICINAL APPLICATIONS THEREOF” (JUBILANT BIOSYS LIMITED, priority 2019, published 2023):
pIC50: −log10 of the molar value. Counter-ions that a name gives are not always drawn.

Experiments:
Assay type in all cases: cell-based
[1] = system: A431 cells; experiment: Cellular proliferation (Alamar Blue) assay, A431; conditions: Homo sapiens, A-431; A431 cells, 72 hr, Alamar Blue; read-out: A431 IC50
In short: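 Following a 16–18 h pre-incubation, cells received compound or DMSO for 72 h at 37 °C across a 10–0.0005 μM final range. Proliferation was then scored by Alamar Blue fluorescence (540 nm excitation, 590 nm emission) after 3 h.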

[2] = biological target: EGFR (A767_dupASV) expressing Ba/F3 stable cell line (Homo sapiens, UniProt P00533, DUP767-769, cells depend on it); experiment: Cellular proliferation (Alamar Blue) assay, EGFR A767_dupASV Ba/F3; conditions: EGFR A767_dupASV Ba/F3, 72 hr, read-out: A767 IC50
EGFR (A767_dupASV) expressing Ba/F3 stable cell line, sequence (P00533 with tags, fused parts or gaps DUP767-769): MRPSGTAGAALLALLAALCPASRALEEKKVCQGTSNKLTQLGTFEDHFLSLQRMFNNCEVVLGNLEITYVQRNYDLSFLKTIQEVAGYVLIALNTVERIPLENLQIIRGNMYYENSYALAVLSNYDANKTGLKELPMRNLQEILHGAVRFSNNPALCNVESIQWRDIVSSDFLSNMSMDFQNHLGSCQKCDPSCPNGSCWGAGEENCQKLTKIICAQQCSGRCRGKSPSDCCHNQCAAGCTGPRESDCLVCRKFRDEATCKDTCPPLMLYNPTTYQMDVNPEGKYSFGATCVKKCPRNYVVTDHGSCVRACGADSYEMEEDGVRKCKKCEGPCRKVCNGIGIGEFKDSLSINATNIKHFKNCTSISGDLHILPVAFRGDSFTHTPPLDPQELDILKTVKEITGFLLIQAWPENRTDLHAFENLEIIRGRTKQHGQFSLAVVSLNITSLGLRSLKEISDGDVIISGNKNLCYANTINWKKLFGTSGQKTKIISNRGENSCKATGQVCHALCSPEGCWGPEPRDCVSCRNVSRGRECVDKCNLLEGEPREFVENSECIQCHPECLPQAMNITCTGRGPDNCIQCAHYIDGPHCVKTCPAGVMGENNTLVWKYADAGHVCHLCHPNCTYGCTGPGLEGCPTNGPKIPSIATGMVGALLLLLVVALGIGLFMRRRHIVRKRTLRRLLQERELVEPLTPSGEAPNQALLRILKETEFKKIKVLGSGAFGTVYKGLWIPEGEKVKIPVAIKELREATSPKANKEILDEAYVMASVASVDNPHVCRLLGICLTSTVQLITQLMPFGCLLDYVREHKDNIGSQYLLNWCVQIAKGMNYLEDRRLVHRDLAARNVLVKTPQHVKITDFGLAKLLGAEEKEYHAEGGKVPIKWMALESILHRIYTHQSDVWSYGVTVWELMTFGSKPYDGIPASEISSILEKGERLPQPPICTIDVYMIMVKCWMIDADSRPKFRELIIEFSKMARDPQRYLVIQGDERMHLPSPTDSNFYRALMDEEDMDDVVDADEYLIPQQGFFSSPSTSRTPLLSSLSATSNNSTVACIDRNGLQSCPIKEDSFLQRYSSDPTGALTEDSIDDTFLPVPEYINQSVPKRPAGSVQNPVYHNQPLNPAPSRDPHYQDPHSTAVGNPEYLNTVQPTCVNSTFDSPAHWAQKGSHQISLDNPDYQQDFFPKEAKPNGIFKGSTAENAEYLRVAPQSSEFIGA
In short: (§1)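 Ba/F3 lines (15,000 cells/well, RPMI with 10% FBS) expressing mutant EGFR or HER2, plus BT-474 cells, treated 72 h at 37 °C with compound at 10-0.0005 μM final, 3-fold dilutions. Viability by Alamar Blue after 3 h, fluorescence 540 nm excitation/590 nm emission.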

[3] = biological target: HER2 (A775_G776insYVMA) expressing Ba/F3 stable cell line (Homo sapiens, UniProt P04626, DUP772-775, cells depend on it); experiment: Cellular proliferation (Alamar Blue) assay, HER2 YVMA Ba/F3; conditions: HER2 A775_G776insYVMA Ba/F3, 72 hr, read-out: YVMA IC50
HER2 (A775_G776insYVMA) expressing Ba/F3 stable cell line, sequence (P04626 with tags, fused parts or gaps DUP772-775): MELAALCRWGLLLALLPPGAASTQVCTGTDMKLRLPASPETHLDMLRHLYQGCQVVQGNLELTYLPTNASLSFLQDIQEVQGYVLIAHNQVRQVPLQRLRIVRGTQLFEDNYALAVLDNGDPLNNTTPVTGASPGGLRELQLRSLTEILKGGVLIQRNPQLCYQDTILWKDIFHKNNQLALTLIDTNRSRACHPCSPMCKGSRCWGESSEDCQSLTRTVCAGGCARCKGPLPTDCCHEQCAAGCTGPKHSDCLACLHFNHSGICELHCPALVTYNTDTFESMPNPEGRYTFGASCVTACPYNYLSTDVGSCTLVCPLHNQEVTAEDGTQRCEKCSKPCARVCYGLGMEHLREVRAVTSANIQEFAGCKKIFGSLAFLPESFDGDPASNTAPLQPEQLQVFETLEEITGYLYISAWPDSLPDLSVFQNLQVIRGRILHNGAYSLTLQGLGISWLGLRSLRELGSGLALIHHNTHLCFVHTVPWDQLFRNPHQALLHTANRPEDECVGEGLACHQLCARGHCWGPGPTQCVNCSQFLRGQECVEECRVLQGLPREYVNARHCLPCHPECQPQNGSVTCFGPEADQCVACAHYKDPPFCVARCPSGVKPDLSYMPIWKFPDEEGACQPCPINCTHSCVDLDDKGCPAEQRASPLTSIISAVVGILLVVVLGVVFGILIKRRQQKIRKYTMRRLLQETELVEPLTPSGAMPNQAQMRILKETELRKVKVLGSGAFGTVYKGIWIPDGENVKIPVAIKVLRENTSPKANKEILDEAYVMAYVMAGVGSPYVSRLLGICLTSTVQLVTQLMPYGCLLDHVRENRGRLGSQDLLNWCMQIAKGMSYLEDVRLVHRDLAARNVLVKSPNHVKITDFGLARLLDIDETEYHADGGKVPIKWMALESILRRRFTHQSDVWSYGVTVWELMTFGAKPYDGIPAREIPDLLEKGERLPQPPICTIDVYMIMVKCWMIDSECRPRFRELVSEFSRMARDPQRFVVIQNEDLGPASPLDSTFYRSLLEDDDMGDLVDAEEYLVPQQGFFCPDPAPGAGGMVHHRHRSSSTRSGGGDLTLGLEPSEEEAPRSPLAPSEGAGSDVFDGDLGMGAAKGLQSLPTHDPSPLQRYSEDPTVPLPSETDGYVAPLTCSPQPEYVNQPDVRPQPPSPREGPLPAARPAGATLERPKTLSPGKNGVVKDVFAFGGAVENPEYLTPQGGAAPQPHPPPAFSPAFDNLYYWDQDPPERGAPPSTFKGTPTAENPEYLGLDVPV
Experimental: Example 3: Cellular Proliferation (Alamar Blue) Assays
• 1. EGFR(D770_N771insSVD) expressing Ba/F3 stable cell line • 2. EGFR (A767_dupASV) expressing Ba/F3 stable cell line • 3. A431 cells • 4. BTER2 (A775_G776insYVMA) expressing Ba/F3 stable cell line • 5. BTER2 (WT) expressing Ba/F3 stable cell line • 6. BT-474 cells
• 1. Seed cells at 5000 for A431 and 15,000 cells for Ba/F3 in 100 μL/well in complete media (for A431: DMEM with 10% FBS and for Ba/F3 cells: RPMI with 10% FBS) in 96-well tissue culture plate. Leave outer wells without cells for background measurements. Incubate at 37 degree Celsius in 5% CO2 humidified incubator for 16-18 hours. • 2. Add 0.025 ml of 5× concentration compound dilution or DMSO control. Final compound concentration range is 10-0.0005 μM prepared in 3-fold serial dilutions. Incubate for 72 hr at 37 degree Celsius in […] humidified incubator. • 3. Add 0.0125 mL Alamar Blue™ reagent to each well with multi-channel pipette and tap gently on each side of the plate to mix. Incubate for 3 hours at 37 degree Celsius in […] humidified incubator. • 4. Read plates on fluorescence reader (Tecan Spark Control, Device: Spark, Serial #: 1801006040) at 540 nm excitation, 590 nm emission wavelength. • 5. Data analysis was performed using XLfit 5.5.0.5.

[4] = biological target: EGFR(D770_N771insSVD) expressing Ba/F3 stable cell line (Homo sapiens, UniProt P00533, DUP768-770, cells depend on it); experiment: Cellular proliferation (Alamar Blue) assay, EGFR D770_N771insSVD Ba/F3; conditions: EGFR D770_N771insSVD Ba/F3, 72 hr, read-out: D770 IC50
EGFR(D770_N771insSVD) expressing Ba/F3 stable cell line, sequence (P00533 with tags, fused parts or gaps DUP768-770): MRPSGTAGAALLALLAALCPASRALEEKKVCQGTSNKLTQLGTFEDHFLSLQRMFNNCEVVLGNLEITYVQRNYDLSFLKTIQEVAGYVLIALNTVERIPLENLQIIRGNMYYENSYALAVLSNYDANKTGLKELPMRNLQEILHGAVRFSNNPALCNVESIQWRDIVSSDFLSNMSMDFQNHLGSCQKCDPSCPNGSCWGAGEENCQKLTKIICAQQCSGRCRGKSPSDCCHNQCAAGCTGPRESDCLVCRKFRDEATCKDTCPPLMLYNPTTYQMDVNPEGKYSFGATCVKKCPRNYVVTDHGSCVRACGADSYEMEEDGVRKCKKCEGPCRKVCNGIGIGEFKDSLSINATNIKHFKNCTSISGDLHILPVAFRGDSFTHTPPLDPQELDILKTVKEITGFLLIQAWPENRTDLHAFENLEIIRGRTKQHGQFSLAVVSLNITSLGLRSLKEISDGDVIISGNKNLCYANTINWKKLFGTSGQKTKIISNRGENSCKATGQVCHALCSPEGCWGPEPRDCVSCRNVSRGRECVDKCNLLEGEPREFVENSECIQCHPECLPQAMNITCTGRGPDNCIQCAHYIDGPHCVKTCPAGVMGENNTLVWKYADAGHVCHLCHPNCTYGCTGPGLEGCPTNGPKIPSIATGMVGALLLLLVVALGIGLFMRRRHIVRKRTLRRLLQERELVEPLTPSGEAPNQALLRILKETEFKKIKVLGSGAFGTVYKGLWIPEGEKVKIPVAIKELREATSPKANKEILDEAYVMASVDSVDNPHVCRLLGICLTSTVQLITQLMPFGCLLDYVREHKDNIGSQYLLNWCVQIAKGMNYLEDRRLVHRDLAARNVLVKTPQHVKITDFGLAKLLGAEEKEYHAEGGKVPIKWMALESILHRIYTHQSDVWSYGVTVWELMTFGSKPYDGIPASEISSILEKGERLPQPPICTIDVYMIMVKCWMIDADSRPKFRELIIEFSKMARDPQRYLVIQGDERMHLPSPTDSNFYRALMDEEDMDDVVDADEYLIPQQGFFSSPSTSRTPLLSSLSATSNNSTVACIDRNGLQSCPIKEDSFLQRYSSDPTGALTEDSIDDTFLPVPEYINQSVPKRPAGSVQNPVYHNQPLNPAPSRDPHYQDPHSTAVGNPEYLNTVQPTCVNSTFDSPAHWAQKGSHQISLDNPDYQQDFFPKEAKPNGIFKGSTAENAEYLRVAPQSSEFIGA
In short: as §1

Compound | pIC50 [1] | GI50 [2] [nM] | GI50 [3] [nM] | GI50 [4] [nM]
C=CC(=O)Nc1cccc(N2C(=O)N(Cc3ccccc3)Cc3cnc(Nc4cn(C)nc4F)nc32)c1 [Compound 71, N-(3-(3-benzyl-7-((3-fluoro-1-methyl-1H-pyrazol-4-yl)amino)-2-oxo-3,4-dihydropyrimido[4,5-d]pyrimidin-1(2H)-yl)phenyl)acrylamide] | ≤ 5.00 | 22 | 137 | 21
CN(C)C/C=C/C(=O)Nc1cccc(N2C(=O)N(c3ccccc3)Cc3cnc(Nc4cnn(C5CCC(O)CC5)c4)nc32)c1 (stereo not drawn) [Compound 107, (E)-4-(dimethylamino)-N-(3-(7-((1-(4-hydroxycyclohexyl)-1H-pyrazol-4-yl)amino)-2-oxo-3-phenyl-3,4-dihydropyrimido[4,5-d]pyrimidin-1(2H)-yl)phenyl)but-2-enamide] | ≤ 5.00 | ≥ 10000 | ≥ 10000 | ≥ 10000
C=CC(=O)Nc1cccc(N2C(=O)N(c3ccccc3)Cc3cnc(Nc4cn(C)nc4Cl)nc32)c1 [Compound 116, N-(3-(7-((3-chloro-1-methyl-1H-pyrazol-4-yl)amino)-2-oxo-3-phenyl-3,4-dihydropyrimido[4,5-d]pyrimidin-1(2H)-yl)phenyl)acrylamide] | ≤ 5.00 | 1 | 24 | 7
C=CC(=O)Nc1cccc(N2C(=O)N(Cc3ccccc3)Cc3cnc(Nc4cn(C)nc4Cl)nc32)c1 [Compound 73, N-(3-(3-benzyl-7-((3-chloro-1-methyl-1H-pyrazol-4-yl)amino)-2-oxo-3,4-dihydropyrimido[4,5-d]pyrimidin-1(2H)-yl)phenyl)acrylamide] | ≤ 5.00 | 4 | 49 | 20
Cn1cc(Nc2ncc3c(n2)N(c2cccc(NC(=O)/C=C/CF)c2)C(=O)N(c2ccccc2)C3)c(Cl)n1 [Compound 117, (E)-N-(3-(7-((3-chloro-1-methyl-1H-pyrazol-4-yl)amino)-2-oxo-3-phenyl-3,4-dihydropyrimido[4,5-d]pyrimidin-1(2H)-yl)phenyl)-4-fluorobut-2-enamide] | ≤ 5.00 | 35 | 75 | 50
C=CC(=O)Nc1cccc(N2C(=O)N(Cc3ccccc3)Cc3cnc(Nc4ccc(N5CCC(N(C)C)CC5)nc4)nc32)c1 [Compound 72, N-(3-(3-benzyl-7-((6-(4-(dimethylamino)piperidin-1-yl)pyridin-3-yl)amino)-2-oxo-3,4-dihydropyrimido[4,5-d]pyrimidin-1(2H)-yl)phenyl)acrylamide] | ≤ 5.00 | 100 | 575 | 296
CN(C)C/C=C/C(=O)Nc1cccc(N2C(=O)N(c3ccccc3)Cc3cnc(Nc4ccc(N5CCN(C)CC5)nc4)nc32)c1 [Compound 109, (E)-4-(dimethylamino)-N-(3-(7-((6-(4-methylpiperazin-1-yl)pyridin-3-yl)amino)-2-oxo-3-phenyl-3,4-dihydropyrimido[4,5-d]pyrimidin-1(2H)-yl)phenyl)but-2-enamide] | ≤ 5.00 | 2320 | 3300 | 6030
COC/C=C/C(=O)Nc1cccc(N2C(=O)N(Cc3ccccc3)Cc3cnc(Nc4cn(C)nc4F)nc32)c1 [Compound 83, (E)-N-(3-(3-benzyl-7-((3-fluoro-1-methyl-1H-pyrazol-4-yl)amino)-2-oxo-3,4-dihydropyrimido[4,5-d]pyrimidin-1(2H)-yl)phenyl)-4-methoxybut-2-enamide] | ≤ 5.00 | 1010 | 740 | 992
C=C(C)C(=O)Nc1cccc(N2C(=O)N(c3ccccc3)Cc3cnc(Nc4cn(C)nc4Cl)nc32)c1 [Compound 121, N-(3-(7-((3-chloro-1-methyl-1H-pyrazol-4-yl)amino)-2-oxo-3-phenyl-3,4-dihydropyrimido[4,5-d]pyrimidin-1(2H)-yl)phenyl)methacrylamide] | ≤ 5.00 | 8600 | 883 | ≥ 10000
Cn1cc(Nc2ncc3c(n2)N(c2cccc(NC(=O)/C=C/CN4CCOCC4)c2)C(=O)N(c2ccccc2)C3)c(Cl)n1 [Compound 122, (E)-N-(3-(7-((3-chloro-1-methyl-1H-pyrazol-4-yl)amino)-2-oxo-3-phenyl-3,4-dihydropyrimido[4,5-d]pyrimidin-1(2H)-yl)phenyl)-4-morpholinobut-2-enamide] | ≤ 5.00 | 101 | 132 | 284
C=CC(=O)Nc1ccc(N2C(=O)N(c3ccccc3)Cc3cnc(Nc4cn(C)nc4Cl)nc32)cc1 [Compound 131, N-(4-(7-((3-chloro-1-methyl-1H-pyrazol-4-yl)amino)-2-oxo-3-phenyl-3,4-dihydropyrimido[4,5-d]pyrimidin-1(2H)-yl)phenyl)acrylamide] | 5.45 | 373 | 1130 | 765
Cn1cc(Nc2ncc3c(n2)N(c2cccc(NC(=O)/C=C/CF)c2)C(=O)N(Cc2ccccc2)C3)c(F)n1 [Compound 88, (E)-N-(3-(3-benzyl-7-((3-fluoro-1-methyl-1H-pyrazol-4-yl)amino)-2-oxo-3,4-dihydropyrimido[4,5-d]pyrimidin-1(2H)-yl)phenyl)-4-fluorobut-2-enamide] | < 5.00 | 22 | 101 | 40
C=CC(=O)Nc1cccc(N2C(=O)N(c3ccccc3)Cc3cnc(Nc4cn(C)nc4F)nc32)c1 [Compound 113, N-(3-(7-((3-fluoro-1-methyl-1H-pyrazol-4-yl)amino)-2-oxo-3-phenyl-3,4-dihydropyrimido[4,5-d]pyrimidin-1(2H)-yl)phenyl)acrylamide] | ≤ 5.00 | 4 | 68 | 17
CC#CC(=O)Nc1cccc(N2C(=O)N(c3ccccc3)Cc3cnc(Nc4cn(C)nc4Cl)nc32)c1 [Compound 125, N-(3-(7-((3-chloro-1-methyl-1H-pyrazol-4-yl)amino)-2-oxo-3-phenyl-3,4-dihydropyrimido[4,5-d]pyrimidin-1(2H)-yl)phenyl)but-2-ynamide] | ≤ 5.00 | 269 | 445 | 338
C=CC(=O)Nc1cccc(N2C(=O)N(c3ccccc3)Cc3cnc(Nc4cn(C(C)(C)C#N)nc4Cl)nc32)c1 [Compound 123, N-(3-(7-((3-chloro-1-(2-cyanopropan-2-yl)-1H-pyrazol-4-yl)amino)-2-oxo-3-phenyl-3,4-dihydropyrimido[4,5-d]pyrimidin-1(2H)-yl)phenyl)acrylamide trifluoroacetate salt] | ≤ 5.00 | 176 | 319 | 300
C=CC(=O)Nc1cccc(N2C(=O)N(Cc3ccccc3)Cc3cnc(Nc4cccc5c4CCN5C)nc32)c1 [Compound 79, N-(3-(3-benzyl-7-((1-methylindolin-4-yl)amino)-2-oxo-3,4-dihydropyrimido[4,5-d]pyrimidin-1(2H)-yl)phenyl)acrylamide] | ≤ 5.00 | 89 | 338 | 107
O=C(/C=C/CF)Nc1cccc(N2C(=O)N(c3ccccc3)Cc3cnc(Nc4cccnc4F)nc32)c1 [Compound 135, (E)-4-fluoro-N-(3-(7-((2-fluoropyridin-3-yl)amino)-2-oxo-3-phenyl-3,4-dihydropyrimido[4,5-d]pyrimidin-1(2H)-yl)phenyl)but-2-enamide] | < 5.00 | 43 | 294 | 120
Cn1cc(Nc2ncc3c(n2)N(c2cccc(NC(=O)/C=C/CN4CCCCC4)c2)C(=O)N(Cc2ccccc2)C3)c(F)n1 [Compound 82, (E)-N-(3-(3-benzyl-7-((3-fluoro-1-methyl-1H-pyrazol-4-yl)amino)-2-oxo-3,4-dihydropyrimido[4,5-d]pyrimidin-1(2H)-yl)phenyl)-4-(piperidin-1-yl)but-2-enamide] | ≤ 5.00 | 123 | 40 | 280
